Results reported in PMC13267291, “In vivo functional profiling and structural characterization of the human GLP1R A316T variant” (Science Advances, 2026).

Legend:
[1] = test system: SNAP/FLAG-hGLP1R^A316T versus ^WT; assay: GLP-1R recycling assay; format: cell-based, human; settings: INS-1 832/3 sublines; 1 hour agonist, 1 and 3 hours recycling; n = 3-4; Fig. 7H
Procedure: INS-1 832/3 Glp1r^−/− SNAP/FLAG-hGLP1R^WT or ^A316T cells were seeded as above for 24 hours, washed with HBSS, pretreated with vehicle or GLP-1RA for 1 hour at 37°C in complete medium, washed again, and treated with 100 nM exendin-4–TMR in reverse time order for 3 hours and 1 hour at 37°C in complete medium. Plates were then promptly imaged after washing as above. In this assay, total exendin-4–TMR uptake is indicative of residual surface receptor at the end of the GLP-1RA treatment and cumulative reappearance of the surface receptor during the recycling period.

[2] = test system: SNAP/FLAG-hGLP1R^A316T versus ^WT; assay: Real-time cAMP imaging (cADDis) in INS-1 832/3 sublines; format: cell-based, rat; settings: 100 nM, n = 4, no significant differences, fig. S8K-P
Procedure: To measure cAMP, hGLP1R^A316T/A316T versus ^+/+ control mouse islets, or INS-1 832/3 SNAP/FLAG-hGLP1R^WT versus ^A316T cells cultured on glass-bottom MatTek dishes, were transduced with cADDis (Green Gs cADDis cAMP Kit, Montana Molecular), a baculovirus genetically encoding a fluorescent cAMP in situ biosensor, following the manufacturer’s instructions. Transduced islets were subsequently encased into Matrigel on glass-bottom MatTek dishes 24 hours after transduction, and both islets and cells were imaged at λex = 488 nm in a Nikon Eclipse Ti spinning disk confocal microscope and 20× objective with an ORCA-Flash 4.0 camera (Hamamatsu) for time-lapse recordings with image acquisitions every 6 s in KRBH buffer containing 0.1% (w/v) BSA and 6 mM glucose for 2 min to record the baseline, with 100 nM GLP-1RA subsequently added by manual pipetting, and islets imaged for a further 5 min before addition of 100 μM IBMX + 10 μM forskolin for the final 2 min of the acquisition. Raw green fluorescence intensity traces were extracted from whole islet regions of interest (ROIs) using Fiji, and mean intensities were calculated for each ROI and time point. Responses were plotted relative to average fluorescence intensity per islet during the baseline period before GLP-1RA addition.

[3] = test system: SNAP/FLAG-hGLP1R^A316T versus ^WT; assay: Real-time cytosolic calcium assay (Cal-520, AM) in transduced hGLP1R^-/- mouse islets; format: cell-based, human; settings: 100 nM; 6 mM glucose; AUC; n = 3-4; fig. S7D-H
Procedure: signal serially monitored for 30 min. The TR-FRET ratio, i.e. the ratio of fluorescence intensities at 590 and 490 nm, was considered indicative of the proximity of the GLP-1R ECD to the plasma membrane.
Baseline-normalised AUCs were used to generate concentration– response curves fitted using GraphPad Prism 10.1.2, with logEC50 and Emax calculated for each replicate dose response curve.
Real- time c ytosolic c alcium a ssay hGLP1R-/- mouse islets were transduced with pAV- SNAP/FLAG-hGLP1RWT or A316T adenoviruses for 24 hours, labelled with the Ca2+ dye Cal-520, AM (4.5 μM; Stratech) diluted in KBRH buffer containing 6 mM glucose for 1 hour and encased in Matrigel onto […] glass bottom MatTek dishes. Islets were then imaged every 6 s at 488 nm using a Nikon Eclipse Ti microscope with an ORCA-Flash 4.0 camera (Hamamatsu) and Metamorph software (Molecular Devices) at 37°C on a heated stage before and after addition of the indicated GLP-1RA followed by 11 mM glucose and then 20 mM KCl at the indicated time points. Raw fluorescence intensity traces from islet ROIs were extracted using Fiji. Responses were plotted relative to the average fluorescence intensity during the 6 mM glucose baseline period, before agonist addition, and AUCs separately calculated for the GLP- 1RA + 6 mM and 11 mM glucose […]
Isolation o f detergent-resistant membrane (D RM) fractions
To purify lipid rafts, […] fractions were isolated from INS-1 832/3 Glp1r-/- SNAP/FLAG-hGLP1RWT or A316T cells by ultracentrifugation based on their insolubility in non-ionic detergents at 4°C and their low density because of their high lipid-to- protein ratio. Cells seeded onto 6-cm dishes were stimulated ± 100 […]
mM tris-HCl, pH 7.0 buffer supplemented with cOmplete EDTA-free protease inhibitor cocktail (Roche) and phosphatase inhibitor cocktail 2 (Sigma-Aldrich) for 10-15 minutes on a rocking platform at 4°C. The cell suspension was collected and homogenised by passing through a 21-gauge needle, followed by ultracentrifugation at 63,000 g f or 1 hour at 4°C with a Sorvall Discovery M120 ultracentrifuge. Pellets

[4] = test system: hGLP1R^A316T-SmBiT versus hGLP1R^WT-SmBiT; assay: Mini-Gs recruitment by NanoBiT complementation; format: cell-based, human; settings: serial doses up to 100 nM; n = 5; Fig. 7L
Procedure: For mini-Gs recruitment, INS-1 832/3 Glp1r^−/− cells were seeded in 6-cm dishes and transiently cotransfected with 1.7 μg each of hGLP1R^WT or ^A316T-SmBiT and LgBiT-mini-Gs constructs for 24 hours. Cells were then detached, resuspended in Hanks’ balanced salt solution (HBSS) containing NanoGlo Live Cell Reagent (1:20; Promega) with furimazine, and seeded onto white 96-well half-area plates. Baseline luminescence was immediately recorded over 8 min at 37°C in a Flexstation 3 plate reader (Molecular Devices) and for a further 30 min after GLP-1RA addition at serial doses up to 100 nM. Readings were taken every 30 s and normalized to average well baseline, and average vehicle-induced signal was subtracted to establish the agonist-induced effect. To measure β-arrestin 2 recruitment, cells were processed as above with slight modifications: INS-1 832/3 Glp1r^−/− cells were cotransfected with 1.77 μg each of hGLP1R^WT or ^A316T-SmBiT and LgBiT–β-arrestin 2 plasmids for 24 hours, and GLP-1RAs were added at serial doses up to 1 μM. AUCs were calculated for each agonist concentration and fitted to log(agonist) versus response four-parameter curves using GraphPad Prism 10.1.2, with errors propagated for mini-Gs over β-arrestin 2 recruitment bias calculations.

| Substance | A316T receptor recycling to the plasma membrane versus WT [1] | cAMP responses, A316T versus WT [2] | Agonist-induced Ca^2+ responses, A316T versus WT [3] | A316T mini-Gs recruitment versus WT, log(Emax/EC50) [4] |
| --- | --- | --- | --- | --- |
| exendin-F1 | not different from WT | tendency for increased cAMP | increased | increased potency |
| exendin-4 | not different from WT | reduced responses | not significantly different | No significant changes |
| GLP-1(7-36)NH2 | significantly reduced | tendency for increased cAMP | not significantly different | No significant changes |
